Measured values from paper PMC12329412, “Study of the mass balance, biotransformation, and safety of [^14C]IBI351 in healthy Chinese subjects” (Journal of Biomedical Research, 2024).
Values joined by “and” are separate entries in the source; they are usually repeats but may differ in a detail not shown here. Equal values may be shown once. “Also recorded” adds a separate entry of the source. Marks after values point to notes of the source that are not given here.

What was measured:
Assay type in all cases: in vivo, human
[1] = Mass balance: recovery of total radioactivity in urine and feces; conditions: for Radioactivity excreted in feces / Radioactivity excreted in urine / Total radioactive excretion in urine and feces: 0–312 h, mean±SD, n=6
Protocol: (§1) This was a single-center, single-dose, open-trial study involving six healthy Chinese male subjects. They received a single dose of 600 mg/150 μCi [^14C]IBI351 on day 1 after fasting for at least 10 h. Blood, urine, and fecal samples were collected at specified time points or intervals within 15 days (0–336 h) following the administration of [^14C]IBI351.
Urine and fecal samples were collected for mass balance analysis and metabolite profiling. Urine samples were collected in polyethylene containers during the following time periods (in hours): −24–0 (pre-dosing), 0–4, 4–8, 8–12, 12–24, and at 24-h intervals thereafter (post-dosing) and stored at 4 ℃ during the collection period. Fecal samples were collected during the following periods (in hours): −24–0 (pre-dosing), 0–24, and at 24-h intervals thereafter (post-dosing). The collection of urine and fecal samples was terminated when the TRA in the combined biological samples (urine + feces) from each subject exceeded 90% of the administered dose. Additionally, the radioactivity in samples collected over two consecutive days should be less than 1% of the administered dose. The samples were weighed in special containers and stored at −10 ℃ to −30 ℃ until analysis.
(§2) Blood, plasma, urine, and fecal samples were analyzed for TRA using the Tri-Carb model 3110 TR liquid scintillation counter (PerkinElmer, Waltham, MA, USA). Blood samples were divided into two parallel portions (0.5 g) and completely burned by OX-501 oxidizer (R.J. Harvey, Tappan, NY, USA). Finally, the samples were analyzed by liquid scintillation counting. Plasma (0.5 g) and urine (1 g) samples were directly analyzed by liquid scintillation counting. Fecal samples were first homogenized with isopropanol/water (50/50, v/v). The excretion of radioactivity in the urine and feces, referring to the cumulative recovery of total radioactive material in each time period, was defined as the sum of the percentage of TRA in the urine and feces relative to the administered dose. The TRA in each sample during a time period and the percentage of TRA related to the administered dose (% of dose) were calculated using the following formula: % of dosage = (TRA detected in the sample/radioactive dosage) × 100%.

[2] = Safety analysis: adverse events and laboratory tests; conditions: for Urea: reference range 3.1–8.0; for Urea / TBIL / ALT / GGT / AST / Cr: listed as [14C]IBI351; for TBIL: reference range 5.1–19.0; for ALT: reference range 9.0–50.0; for GGT: reference range 10.0–60.0; for AST: reference range 15.0–40.0; for Cr: reference range 57.0–97.0; for Safety and tolerability: vital signs, physical indexes, electrocardiogram
Protocol: Safety was evaluated based on the adverse events that occurred during the trial. Normal/abnormal changes in physical examination, vital signs, laboratory tests, electrocardiogram, and other results were evaluated before and after the trial.

[3] = Pharmacokinetics of total radioactivity (TRA) in plasma by liquid scintillation counting; conditions: for Tmax: single oral 600 mg/150 μCi [14C]IBI351, fasted, median (min, max)
Protocol: as §1
(§3) The endpoint of blood analysis was a plasma radioactivity concentration less than 1/8 of the baseline plasma value. Venous blood samples were collected from the six subjects (01101–01106) at the following time points (in hours): −1 (pre-dosing), 0.5, 1, 2, 4, 8, 12, 24, and at 24-h intervals (post-dosing). Whole blood aliquots were collected for radioactivity measurement, and blood samples were centrifuged (1500 [± 10] g, 4 ℃, 10 min) for metabolite identification. All samples were stored at −10–−30 ℃ until analysis.
as §2
(§4) Statistical analysis of TRA in the whole blood and plasma, concentrations of IBI351, corresponding pharmacokinetic parameters, and urine and fecal excretion data was performed using Microsoft Excel 2010. The pharmacokinetic parameters were calculated using Pkanalix 2021R1 (Lixoft, Antony, France). The drug-time curve was plotted using WinNonlin® (version 8.3, Certara). Data were analyzed using the SAS 9.4 software and presented as mean ± standard deviation.

[4] = Plasma pharmacokinetics of IBI351 parent drug (HPLC-MS/MS) after a single oral dose of [14C]IBI351
Protocol: as §1, §3
Plasma, urine, and fecal samples were analyzed using high-performance liquid chromatography-tandem mass spectrometry (HPLC-MS/MS; ABSciex, Carlsbad, CA, USA) to determine the concentrations of IBI351. Samples containing stable isotope-labeled GF1927 (C32H27D3ClFN6O4, with a molecular weight of 620.10) as an internal standard were subjected to protein precipitation with acetonitrile and separated on a Waters Xbridge C18 column (3.5 μm, 50 mm × 2.1 mm; Waters, Milford, MA, USA) at 40 ℃. The mobile phase consisted of deionized water (with 0.1% formic acid) and acetonitrile (with 0.1% formic acid), delivered by gradient elution at 0.6 mL/min, and the gradient elution program was 30% phase B in 0–0.29 min, 80% phase B in 0.30–1.80 min, 30% phase B in 1.81–3.00 min. The detection was performed on a Triple Quad 6500+ tandem mass spectrometer in the positive ion electrospray ionization mode. Quantification was conducted by multiple reaction monitoring of the transitions m/z 617.3→358.2 for IBI351 and m/z 622.2→363.1 for internal standard, respectively. The calibration range for IBI351 in human plasma was 5–5000 ng/mL.
as §4

[5] = individual subjects, rows in order 01101–01106, listed as [14C]IBI351
[6] = D3, individual subjects, rows in order 01101–01106
[7] = D8, individual subjects, rows in order 01101–01106
[8] = follow-up visit, individual subjects, rows in order 01101–01106
[9] = single oral 600 mg/150 μCi, listed as [^14C]IBI351
[10] = total plasma radioactivity, single oral 600 mg/150 μCi, n=6, mean±SD
[11] = IBI351 parent drug in plasma, single oral 600 mg/150 μCi, n=6, mean±SD

In the case of C=CC(=O)N1CCN2c3c(c(=O)n(-c4c(C)ccnc4C(C)C)c4nc(-c5c(O)cccc5F)c(Cl)cc34)N(C)C(=O)C2C1 (stereo not drawn) [IBI351], the “Radioactivity excreted in feces” value [1] is reported as “approximately 86.30 % of dose”, the “Radioactivity excreted in urine” value [1] is reported as 9.27 % of dose and the “Total radioactive excretion in urine and feces” value (“Total radioactive excretion” for short) [1] is reported as 95.56 % of dose. For the same molecule, the “Radioactivity excreted in feces” value ([1]; listed as [14C]IBI351) was 86.30±4.90 % of dose, the “Radioactivity excreted in urine” value ([1]; listed as [14C]IBI351) was 9.27±1.83 % of dose and the “Total radioactive excretion” value ([1]; listed as [14C]IBI351) was 95.56±3.41 % of dose. The “Radioactivity excreted in feces” value ([1]; listed as [^14C]IBI351) was 86.30 % of dose, the “Radioactivity excreted in urine” value ([1]; listed as [^14C]IBI351) was 9.27 % of dose and the “Total radioactive excretion” value ([1]; listed as [^14C]IBI351) was 95.56 % of dose. The Excretion rate ([1]; at 144 h (six days) post-dose) was “less than 1.00%”, the “Urine and feces recovered radioactivity” value ([1]; individual subjects, rows in order 01101–01106, 01105 normalized to 100.00%, listed as [14C]IBI351) was 92.36 % of dose and 94.47 % of dose and 91.45 % of dose and 96.48 % of dose and 100.00 % of dose and 98.61 % of dose and the Feces recovered radioactivity [1, 5] was 80.29 % of dose and 87.83 % of dose and 92.67 % of dose and 89.35 % of dose and 80.67 % of dose and 86.99 % of dose. For the same molecule, the Urine recovered radioactivity [1, 5] was 11.69 % of dose and 7.48 % of dose and 11.16 % of dose and 8.65 % of dose and 7.33 % of dose and 9.26 % of dose, the “TRA excreted into the feces” value ([1]; of the administered dose, from 0 h to 192 h) was 86.30% and the “TRA excreted into the urine and feces” value ([1]; of the administered dose, period printed as 0–192 h) was 95.56%. For the same molecule, the “Total radioactive content excreted in urine and feces within 120 h” value ([1]; within 120 h (five days) after administration, on average) was “more than 90.00%”, the Urea [2, 6] was 4.3 mmol/L and 4.9 mmol/L and 5.1 mmol/L and 4.5 mmol/L and 4.0 mmol/L and 5.5 mmol/L and the TBIL [2, 6] was 6.4 µmol/L and 12.2 µmol/L and 7.7 µmol/L and 10.0 µmol/L and 11.5 µmol/L and 10.4 µmol/L. The ALT ([2]; D3, individual subjects, 01101, 01102–01106) was 11.4 U/L and 10.3 U/L and 11.0 U/L and 14.4 U/L and 29.0 U/L and 17.0 U/L, the GGT [2, 6] was 9.9 U/L and 17.1 U/L and 19.1 U/L and 33.0 U/L and 14.4 U/L and 20.1 U/L and the AST [2, 6] was 18.5 U/L and 11.5 U/L and 10.9 U/L and 16.4 U/L and 23.6 U/L and 19.0 U/L. The Cr [2, 6] was 73.1 µmol/L and 69.5 µmol/L and 66.4 µmol/L and 69.2 µmol/L and 76.5 µmol/L and 78.7 µmol/L, the Urea [2, 7] was 3.8 mmol/L and 5.4 mmol/L and 5.6 mmol/L and 4.2 mmol/L and 4.5 mmol/L and 5.1 mmol/L and the TBIL [2, 7] was 8.1 µmol/L and 14.2 µmol/L and 4.5 µmol/L and 8.0 µmol/L and 15.1 µmol/L and 13.5 µmol/L. For the same molecule, the ALT [2, 7] was 18.3 U/L and 12.1 U/L and 10.5 U/L and 19.8 U/L and 30.9 U/L and 17.9 U/L, the GGT [2, 7] was 12.1 U/L and 25.8 U/L and 16.8 U/L and 33.8 U/L and 17.0 U/L and 19.2 U/L and the AST [2, 7] was 24.1 U/L and 14.2 U/L and 15.8 U/L and 15.2 U/L and 22.2 U/L and 17.7 U/L. The Cr [2, 7] was 69.6 µmol/L and 73.7 µmol/L and 64.2 µmol/L and 72.0 µmol/L and 76.4 µmol/L and 84.3 µmol/L, the “Severity of TEAEs” value ([2]; all TEAEs, single oral 600 mg/150 μCi) was “grade 1” and the Urea [2, 8] was 3.5 mmol/L and 3.8 mmol/L and 5.6 mmol/L and 4.7 mmol/L and 4.1 mmol/L and 6.1 mmol/L. The TBIL [2, 8] was 8.1 µmol/L and 12.3 µmol/L and 4.5 µmol/L and 7.0 µmol/L and 8.8 µmol/L, the ALT [2, 8] was 9.5 U/L and 20.5 U/L and 8.0 U/L and 19.4 U/L and 21.4 U/L and 14.7 U/L and the GGT [2, 8] was 13.4 U/L and 25.8 U/L and 22.0 U/L and 32.9 U/L and 16.9 U/L and 15.9 U/L. The AST [2, 8] was 15.7 U/L and 14.2 U/L and 16.9 U/L and 11.0 U/L and 19.4 U/L and 17.6 U/L, the Cr [2, 8] was 72.8 µmol/L and 73.1 µmol/L and 64.2 µmol/L and 71.4 µmol/L and 66.8 µmol/L and 92.4 µmol/L and the “Subjects experiencing treatment-emergent adverse events (TEAEs)” value ([2]; four of six subjects, TEAEs unrelated to [14C]IBI351, single oral 600 mg/150 μCi) was 66.7%. For the same molecule, the “TEAE: diarrhea” value ([2]; share of six subjects, grade 1) was 33.3%, the “TEAE: elevated blood triglycerides” value ([2]; share of six subjects, grade 1) was 33.3% and the “TEAE: positive fecal occult blood” value ([2]; share of six subjects, grade 1) was 16.7%. The “TEAEs leading to death” value ([2]; single oral 600 mg/150 μCi) was “no TEAEs leading to death”, the Serious adverse events [2, 9] was “no serious adverse events; also recorded: no severe adverse events” and the “TEAEs of CTCAE grade ≥ 3” value [2, 9] was “no TEAEs with Common Terminology Criteria for Adverse Events (CTCAE) grade ≥ 3; also recorded: no TEAEs of CTCAE grade ≥ 3”. For the same molecule, the Safety and tolerability ([2]; single oral 600 mg/150 μCi) was “generally safe and well tolerated”, the Safety and tolerability [2, 9] was “good safety and tolerance” and the quantifiable time point ([3]; TRA in plasma) was 456 h. The Tmax ([3]; total plasma radioactivity, n=6) was 2.00 h and 2.00 (2.00, 4.00) h, the Tmax ([3]; total plasma radioactivity, n=6, listed as [^14C]IBI351) was 2 h and the “AUC0–inf” value [3, 10] was 4.69×10^5±1.10×10^5 h·ng Eq./mL. The “AUC0–last” value [3, 10] was 4.33×10^5±1.04×10^5 h·ng Eq./mL, the CL/F [3, 10] was 1.32 ± 0.319 L/h and the Cmax [3, 10] was 7.26 × 10^3 (± 1.68 × 10^3) ng Eq./mL and 7.26×10^3±1.68×10^3 ng Eq./mL. The “MRT0–last” value [3, 10] was 108 ± 4.20 h, the T1/2 [3, 10] was 129 (± 21.7) h and 129±21.7 h and the Vz/F [3, 10] was 242 ± 50.7 L. For the same molecule, the T1/2 ([3]; total plasma radioactivity, single oral 600 mg/150 μCi, n=6, mean±SD, listed as [^14C]IBI351) was 129 h, the quantifiable time point ([4]; IBI351 parent drug in plasma) was 168 h and the “AUC0–last” value [4, 11] was 2.65×10^4±5.90×10^3 h·ng Eq./mL. The CL/F [4, 11] was 25.6 (± 5.56) L/h and 25.6±5.56 L/h, the Cmax [4, 11] was 3.90×10^3±8.02×10^2 ng Eq./mL and the Cmax ([4]; IBI351 parent drug in plasma, single oral 600 mg/150 μCi, n=6, mean±SD, listed as IB1351) was 3.90 × 10^3 (± 8.02 × 10^2) ng Eq./mL. It also gave a Cmax ([4]; male, human, oral, 600 mg, IBI351 parent drug in plasma, read-out: mean Cmax) of 3900 ng/mL, a CL renal ([4]; male, human, plasma, single oral 600 mg/150 μCi, read-out: renal clearance (converted)) of 30.3 mL/min and a Tmax ([4]; male, human, IBI351 parent drug in plasma, single oral 600 mg/150 μCi, fasted, n=6, median (min, max)) of 1 h. The half-life ([4]; male, human, IBI351 parent drug in plasma, single oral 600 mg/150 μCi, n=6, mean±SD) was 17.4 ± 11.9 h, the MRT last ([4]; male, human, IBI351 parent drug in plasma, single oral 600 mg/150 μCi, n=6, mean±SD, read-out: MRT0–last) was 8.24 ± 1.1 h and the Vd/F ([4]; male, human, IBI351 parent drug in plasma, single oral 600 mg/150 μCi, n=6, mean±SD, read-out: Vz/F) was 581 ± 323 L.
